In the supplement of paper PMC11451515:

Legend:
Conditions in all cases: 48 h
[1] = system: NOMO1; test: AUC of viability dose-response curve (% viability x log10 dose units); higher = less sensitive
Method in brief: (§1)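 Medium-adapted leukemia cells in 1536-well plates, at 500 or 1000 cells/well, were incubated for 48 h at 37°C with library compounds in DMSO at 11 threefold doses from 47 μM to 0.79 nM. CellTiter-Glo One luminescence normalised per plate to DMSO and cell-free wells was fitted with a four-parameter log-logistic model over log10 doses. Area under the curve was integrated from this fit by trapezoidal rule, with curves beyond full viability scaled and failed quality-control curves removed.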

[2] = system: SEM cells; test: as above
Method in brief: as §1

[3] = system: P12-Ichikawa; test: as above
Method in brief: as §1

[4] = system: NOMO1; test: cell viability relative to DMSO control; higher = less cytotoxic
Method in brief: (§2)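 NOMO1 or SEM (500 cells/well) or P12-Ichikawa (1000 cells/well) leukemia cells were adapted for at least four passages in each medium. They were seeded in 1536-well plates (5 μl) and pin-dosed with library compounds in DMSO over an 11-point threefold series, 47 μM to 0.79 nM. CellTiter-Glo One luminescence was read after 48 h at 37°C. Viability is the per-plate percentage relative to DMSO wells, with cell-free wells as background.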

[5] = system: SEM cells; test: as above
Method in brief: as §2

[6] = system: P12-Ichikawa; test: as above
Method in brief: as §2

O=C(Nc1ccncc1)C(=O)c1cn(Cc2ccc(Cl)cc2)c2ccccc12
AUC of viability dose-response curve
Conditions | [1] | [2] | [3]
HPLM + 10% dialyzed FBS | 306 | 249 | 281
RPMI 5 mM glucose + 10% FBS | 315 | 237 | 275
RPMI 5 mM glucose + 10% dialyzed FBS | 311 | 247 | 288

cell viability [%]
Conditions | [4] | [5] | [6]
HPLM + 10% dialyzed FBS, 0.000781 µM | 106 | 92.5 | 103
HPLM + 10% dialyzed FBS, 0.00234 µM | 110 | 94 | 101
HPLM + 10% dialyzed FBS, 0.00702 µM | 116 | 91.7 | 111
HPLM + 10% dialyzed FBS, 0.0211 µM | 105 | 81.9 | 96.6
HPLM + 10% dialyzed FBS, 0.0632 µM | 77.9 | 54.8 | 70.5
HPLM + 10% dialyzed FBS, 0.19 µM | 38.1 | 31.5 | 35
HPLM + 10% dialyzed FBS, 0.569 µM | 34 | 29.4 | 18.4
HPLM + 10% dialyzed FBS, 1.71 µM | 32.7 | 24.7 | 21.8
HPLM + 10% dialyzed FBS, 5.12 µM | 36.2 | 25.7 | 40.1
HPLM + 10% dialyzed FBS, 15.4 µM | 60.6 | 28.5 | 35.2
HPLM + 10% dialyzed FBS, 46.1 µM | 61.7 | 26.3 | 46.5
RPMI 5 mM glucose + 10% FBS, 0.000781 µM | 95.5 | 130 | 104
RPMI 5 mM glucose + 10% FBS, 0.00234 µM | 98.1 | 105 | 98.6
RPMI 5 mM glucose + 10% FBS, 0.00702 µM | 89.3 | 122 | 107
RPMI 5 mM glucose + 10% FBS, 0.0211 µM | 89.2 | 114 | 96.5
RPMI 5 mM glucose + 10% FBS, 0.0632 µM | 100 | 57.7 | 62.8
RPMI 5 mM glucose + 10% FBS, 0.19 µM | 46.2 | 33 | 34.8
RPMI 5 mM glucose + 10% FBS, 0.569 µM | 26.3 | 17.8 | 16.5
RPMI 5 mM glucose + 10% FBS, 1.71 µM | 22.6 | 18.2 | 24.3
RPMI 5 mM glucose + 10% FBS, 5.12 µM | 53.7 | 18.7 | 34.1
RPMI 5 mM glucose + 10% FBS, 15.4 µM | 44.1 | 22.2 | 39.2
RPMI 5 mM glucose + 10% FBS, 46.1 µM | 61.9 | 28 | 44.1
RPMI 5 mM glucose + 10% dialyzed FBS, 0.000781 µM | 88.2 | 107 | 90.9
RPMI 5 mM glucose + 10% dialyzed FBS, 0.00234 µM | 91.2 | 88.4 | 94.2
RPMI 5 mM glucose + 10% dialyzed FBS, 0.00702 µM | 116 | 95.3 | 97.2
RPMI 5 mM glucose + 10% dialyzed FBS, 0.0211 µM | 106 | 75.9 | 98.2
RPMI 5 mM glucose + 10% dialyzed FBS, 0.0632 µM | 80.4 | 58.5 | 79.1
RPMI 5 mM glucose + 10% dialyzed FBS, 0.19 µM | 45.4 | 27.7 | 46.5
RPMI 5 mM glucose + 10% dialyzed FBS, 0.569 µM | 28.3 | 23.9 | 20.8
RPMI 5 mM glucose + 10% dialyzed FBS, 1.71 µM | 34.7 | 20.9 | 23.1
RPMI 5 mM glucose + 10% dialyzed FBS, 5.12 µM | 45.3 | 26.6 | 34.6
RPMI 5 mM glucose + 10% dialyzed FBS, 15.4 µM | 39.7 | 25.3 | 36.2
RPMI 5 mM glucose + 10% dialyzed FBS, 46.1 µM | 49.4 | 30.5 | 46.6
